Source: patent US20240309014A1, “MACROCYCLIC COMPOUNDS AND USES THEREOF” (President and Fellows of Harvard College, priority 2017, published 2024)

Tested on: α-SMA expression in BJ normal human fibroblasts
Assay: α-SMA expression in BJ fibroblasts co-cultivated with FaDu cells
Format: cell-based
Settings: BJ cells co-cultured with FaDu for three days
Method: FIG. 19A. BJ cells (normal human […] fibroblasts) were co-cultured with FaDu cells for three days in the absence (vehicle) or presence of A83-01, a potent selective TGF-β-R inhibitor, and the expression of α-SMA was analysed by immunofluorescence staining (red color). Samples were also stained with anti-pan-human cytokeratin (green color) for cancer cell staining and DAPI (blue color) for nuclear staining. FIGS. 19B-19E BJ cells were treated with Compound (1) (0.15 nmol/L in immunofluorescence staining data and indicated concentrations in western blot analysis data) and TGF-β for 2 days. FIGS. 19B-19E. Samples were stained with the indicated antibody (red color) and DAPI (blue color) for nuclear staining. FIG. 19E Western blot images and quantification of the images. […] FIGS. 19G and 19E BJ cells were pretreated with defactinib (1 μmol/L) and TGF-β for 2 days. The lens magnification used was x4 (FIGS. 19A, 19B, 19C, 19G, and 19H) or x40 (FIGS. 19D and 19E).
The expression of α-SMA was induced in BJ normal human fibroblasts upon co-cultivation with FaDu cells, and the expression was attenuated by treatment with A83-01, a potent selective inhibitor of the TGF-β-receptor (FIG. 19A).

Cc1cccc(-c2nn(C(=S)Nc3ccccc3)cc2-c2ccnc3ccccc23)n1 [Compound A83-01]
expression of α-SMA induced upon co-cultivation with FaDu cells: attenuated
